The text below walks through data of US11939334B2, “Substituted pyrimido[4,5-b][1,4]diazepines as PLK1 degradation inducers” (UPPTHERA, INC., priority 2021, dated 2024).

The structures appear in SMILES notation. Where only a bound is given, the exact number is not on record here.

The nature of series [1]: Cell viability assay for MRC-5 cell line. The conditions noted are these: human.
Protocol: Cell Viability Assay for MRC-5 Cell Line
(1) Culture of MRC-5 Cell Line
The MRC-5 cell line was purchased from Korea Cell Line Bank (KCLB), Seoul, Korea. Passage of cultured cells was maintained within P15.
6×10^3 cells were seeded for each well of a 96-well plate (SPL), and the cells were cultured in total volume of 150 μL.
Each well was mixed with a medium and treated, and the volume was set to 50 μL, so that the total volume of each well was 200 μL. Then, it was cultured in 37° C.
The following compounds were used as comparative examples, and the cell viability assay was performed in the same manner as in the compounds of Examples.
(3) Cytotoxicity Experiment
After treating EZ-Cytox (DOGEN, Cat. NO. EZ-3000, Lot. No. DLS2112) 20 μL in each well of completely cultured plate, it was cultured in 37° C. CO2 incubator for 4 hours. […] The data were converted into graphs using the Prism (ver. 9) program.
In a further series the target is T1, PLK1 (Homo sapiens, UniProt P53350).
T1 construct: endogenous in cells; host or cells: HeLa cells stably expressing LgBit, with CRISPR/Cas9 knock-in of HiBit at the endogenous PLK1 locus
T1 sequence (P53350 whole entry): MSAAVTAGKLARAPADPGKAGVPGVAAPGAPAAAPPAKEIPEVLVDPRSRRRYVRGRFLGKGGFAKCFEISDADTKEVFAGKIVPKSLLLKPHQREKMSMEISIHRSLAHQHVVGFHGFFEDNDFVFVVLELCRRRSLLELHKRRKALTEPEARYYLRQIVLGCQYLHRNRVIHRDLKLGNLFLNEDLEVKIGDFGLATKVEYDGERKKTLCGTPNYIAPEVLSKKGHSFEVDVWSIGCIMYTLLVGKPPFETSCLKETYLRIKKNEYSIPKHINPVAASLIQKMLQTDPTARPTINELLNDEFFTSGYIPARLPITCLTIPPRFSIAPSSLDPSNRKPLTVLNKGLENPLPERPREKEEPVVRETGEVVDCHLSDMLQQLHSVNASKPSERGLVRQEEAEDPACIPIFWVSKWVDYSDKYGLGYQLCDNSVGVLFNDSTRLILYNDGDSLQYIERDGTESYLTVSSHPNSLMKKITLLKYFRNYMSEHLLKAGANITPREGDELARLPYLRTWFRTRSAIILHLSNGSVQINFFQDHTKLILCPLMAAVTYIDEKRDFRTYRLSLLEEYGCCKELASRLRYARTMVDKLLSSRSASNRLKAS
Kind of series: Luciferase assay for PLK1 in HeLa LgBit (Plk1-HiBit KI) cell line. Type of series: cell-based. The settings on record: 300 nM compound, luminescence after 9 hours. The method, then:
2. Luciferase Assay for PLK1
(1) Preparation and Culture of HeLa LgBit (Plk1-HiBit KI) Cell Line
A HeLa cell line in which the LgBit vector was transfected and expressed stably was prepared. Then, after constructing gRNA and donor to express the HiBit amino acid sequence behind the C-terminal of the Plk1 gene, which was inherent in the cell, it was inserted into the cell together with a vector capable of expressing CRISPR/Cas9. Only the cells in which the insertion was completed and knock-in had progressed were selected, sub-cultured and used.
(2) Treatment of Compounds of the Present Invention and Method of Luciferase Assay
In the case of HeLa LgBit (Plk1-HiBit KI), the compounds were treated after being released after thymidine block, and the process was as follows. Thymidine (Sigma-Aldrich Cat. No. T9250-5G) was completely dissolved in DW and used in the experiment. For thymidine block, the products were treated with 2 mM of thymidine and then incubated for 24 hours. For release and chemical treatment, the medium was suctioned and washed with 1×PBS. TrypLE™ was added and incubated in 37° C. CO2 incubator for 5 min. Cells neutralized by adding complete media were counted through a counter. For each well of a 96-well culture plate (SPL), 3.3×10^4 cells and a total medium volume of 150 μL were seeded and incubated in a CO2 incubator.
Each cell line was incubated in a CO2 incubator for 18 hours, and Endurazine was added to each well to make up 4% of the total volume. After adding the compound of the present invention in a 96-well white plate (SPL) to a concentration of 300 nM, the wavelength of the plate reader (BMG Labtech, CLARIOstar Plus) was set to […], and then the luminescence was tracked in real time.
The results are shown in Table 2 below and FIGS. 1 and 2.
In Table 2, Activity represents the ratio of the luminescence value of each Exemplary Compound treatment group to DMSO treatment group (+++: <0.3, ++ <0.6, + <0.7).
Background: The HiBiT peptide binds its large partner to form an active luciferase.

The test system of a further series is H526 cell line. Nature of the series: Cell viability assay for H526 cell line. It counts as cell-based. The conditions noted are these: Homo sapiens, NCI-H526, 120 h; H526 cells, 5 days, EZ-Cytox, 0.46-3000 nM. The protocol: 3. Cell Viability Assay for H526 Cell Line
(1) Culture of NCI-H526 Cell Line
(2) Treatment of Compounds of the Present Invention and Method of Cell Viability Assay
After treating the compound to each well to make the total volume of 200 μL, it was cultured in a CO2 incubator (Thermo Fisher Science, Cat. No. 4111) for 5 days.
The absorbance of the completely cultured sample was measured by setting the wavelength of a plate reader (BMG Labtech, CLARIOstar Plus) to […], and was measured after shaking for 3 minutes in a plate reader before measurement.
In Table 3, Activity represents IC50 value of each Exemplary Compound treatment group to H526 cell line (A: <30 nM, B: <50 nM, C: <100 nM, D: <200 nM, E: <400 nM).

What is called IC50 is the concentration that inhibits the measured activity by half. High values mean weaker potency, low ones greater potency. For `COc1cc(C(=O)NC2CC3(CCN(CC4CCN(c5ccc(C6CCC(=O)NC6=O)cc5F)CC4)CC3)C2)ncc1Nc1ncc2c(n1)N(C(C)C)CC(F)(F)C(=O)N2C` (stereo not drawn) [Compound 22, 5-((7,7-difluoro-9-isopropyl-5-methyl-6-oxo-6,7,8,9-tetrahydro-5H-pyrimido[4,5-b][1,4]diazepin-2-yl)amino)-N-(7-((1-(4-(2,6-dioxopiperidin-3-yl)-2-fluorophenyl)piperidin-4-yl)methyl)-7-azaspiro[3.5]nonan-2-yl)-4-methoxypicolinamide], in series [1], the IC50 at 5 days is greater than 10 µM. In addition, the “Activity: ratio of the luminescence value of each Exemplary Compound treatment group to DMSO treatment group” value (shortened to “Activity: ratio”) on PLK1 is on record as “++ (++ <0.6)”. For the same molecule, the IC50 with H526 cell line is less than 0.05 µM.
Turning to `COc1cc(C(=O)NN2CC3(CCN(CC4CCN(c5ccc(C6CCC(=O)NC6=O)cc5F)CC4)CC3)C2)ccc1Nc1ncc2c(n1)N(C(C)C)CC(F)(F)C(=O)N2C` (stereo not drawn) [Compound 23, 4-((7,7-difluoro-9-isopropyl-5-methyl-6-oxo-6,7,8,9-tetrahydro-5H-pyrimido[4,5-b][1,4]diazepin-2-yl)amino)-N-(7-((1-(4-(2,6-dioxopiperidin-3-yl)-2-fluorophenyl)piperidin-4-yl)methyl)-2,7-diazaspiro[3.5]nonan-2-yl)-3-methoxybenzamide], the IC50 at 5 days in series [1] (MRC-5 cells (normal cell line)) was greater than 10 µM. Besides, the “Activity: ratio” value at PLK1 is “+++ (+++: <0.3)”. Moreover, in the series with H526 cell line, the IC50 was less than 0.03 µM.
Regarding `COc1cc(C(=O)OC2CC3(CCN(CC4CCN(c5ccc(C6CCC(=O)NC6=O)cc5F)CC4)CC3)C2)ccc1Nc1ncc2c(n1)N(C(C)C)CC(F)(F)C(=O)N2C` (stereo not drawn) [Compound 25, 7-((1-(4-(2,6-dioxopiperidin-3-yl)-2-fluorophenyl)piperidin-4-yl)methyl)-7-azaspiro[3.5]nonan-2-yl 4-((7,7-difluoro-9-isopropyl-5-methyl-6-oxo-6,7,8,9-tetrahydro-5H-pyrimido[4,5-b][1,4]diazepin-2-yl)amino)-3-methoxybenzoate], the IC50 at 5 days in series [1] was greater than 10 µM. Further, the “Activity: ratio” value on PLK1 was “++ (++ <0.6)”. The molecule also came in with an IC50 with H526 cell line of less than 0.2 µM.
As to `COc1cc(C(=O)NN2CC3(CCC(CN4CCN(c5ccc(C6CCC(=O)NC6=O)cc5F)CC4)CC3)C2)ccc1Nc1ncc2c(n1)N(C(C)C)CC(F)(F)C(=O)N2C` (stereo not drawn) [Compound 31, 4-((7,7-difluoro-9-isopropyl-5-methyl-6-oxo-6,7,8,9-tetrahydro-5H-pyrimido[4,5-b][1,4]diazepin-2-yl)amino)-N-(7-((4-(4-(2,6-dioxopiperidin-3-yl)-2-fluorophenyl)piperazin-1-yl)methyl)-2-azaspiro[3.5]nonan-2-yl)-3-methoxybenzamide], in series [1], the IC50 at 5 days is greater than 10 µM. Moreover, at PLK1, the “Activity: ratio” value is listed as “+++ (+++: <0.3)”. The molecule further had an IC50 in the series on H526 cell line of less than 0.03 µM.
The matching figures for `COc1cc(C(=O)NC2CC3(CCN(CC4CCN(c5ccc(C6CCC(=O)NC6=O)cc5F)C(C)C4)CC3)C2)ccc1Nc1ncc2c(n1)N(C(C)C)CC(F)(F)C(=O)N2C` (stereo not drawn) [Compound 32, 4-((7,7-difluoro-9-isopropyl-5-methyl-6-oxo-6,7,8,9-tetrahydro-5H-pyrimido[4,5-b][1,4]diazepin-2-yl)amino)-N-(7-((1-(4-(2,6-dioxopiperidin-3-yl)-2-fluorophenyl)-2-methylpiperidin-4-yl)methyl)-7-azaspiro[3.5]nonan-2-yl)-3-methoxybenzamide]: greater than 10 µM, “+++ (+++: <0.3)” and less than 0.03 µM.
The matching figures for `COc1cc(C(=O)NC2CC3(CCN(CC4(O)CCN(c5ccc(C6CCC(=O)NC6=O)cc5F)CC4)CC3)C2)ccc1Nc1ncc2c(n1)N(C(C)C)CC(F)(F)C(=O)N2C` (stereo not drawn) [Compound 33, 4-((7,7-difluoro-9-isopropyl-5-methyl-6-oxo-6,7,8,9-tetrahydro-5H-pyrimido[4,5-b][1,4]diazepin-2-yl)amino)-N-(7-((1-(4-(2,6-dioxopiperidin-3-yl)-2-fluorophenyl)-4-hydroxypiperidin-4-yl)methyl)-7-azaspiro[3.5]nonan-2-yl)-3-methoxybenzamide]: greater than 10 µM, “++ (++ <0.6)” and less than 0.03 µM.
Taken in the same sequence, the figures for `COc1cc(C(=O)NC2CC3(CCN(CC4CCN(c5ccc(C6CCC(=O)NC6=O)cc5C)CC4)CC3)C2)ccc1Nc1ncc2c(n1)N(C(C)C)CC(F)(F)C(=O)N2C` (stereo not drawn) [Compound 35, 4-((7,7-difluoro-9-isopropyl-5-methyl-6-oxo-6,7,8,9-tetrahydro-5H-pyrimido[4,5-b][1,4]diazepin-2-yl)amino)-N-(7-((1-(4-(2,6-dioxopiperidin-3-yl)-2-methylphenyl)piperidin-4-yl)methyl)-7-azaspiro[3.5]nonan-2-yl)-3-methoxybenzamide] were greater than 10 µM, “++ (++ <0.6)” and less than 0.03 µM.
Molecule `COc1cc(C(=O)NC2CC3(CCN(CC4CCN(c5ccc(C6CCC(=O)NC6=O)cc5OC)CC4)CC3)C2)ccc1Nc1ncc2c(n1)N(C(C)C)CC(F)(F)C(=O)N2C` (stereo not drawn) [Compound 36, 4-((7,7-difluoro-9-isopropyl-5-methyl-6-oxo-6,7,8,9-tetrahydro-5H-pyrimido[4,5-b][1,4]diazepin-2-yl)amino)-N-(7-((1-(4-(2,6-dioxopiperidin-3-yl)-2-methoxyphenyl)piperidin-4-yl)methyl)-7-azaspiro[3.5]nonan-2-yl)-3-methoxybenzamide] returned an IC50 at 5 days in series [1] greater than 10 µM. At PLK1, the “Activity: ratio” value was “++ (++ <0.6)”. The molecule further displayed an IC50 in the series with H526 cell line of less than 0.03 µM.
In series [1] (MRC-5 cells (normal cell line)), `COc1cc(C(=O)NN2CCN(C3CCN(c4ccc(C5CCC(=O)NC5=O)cc4F)C3)CC2)ccc1Nc1ncc2c(n1)N(C(C)C)CC(F)(F)C(=O)N2C` (stereo not drawn) [Compound 38, 4-((7,7-difluoro-9-isopropyl-5-methyl-6-oxo-6,7,8,9-tetrahydro-5H-pyrimido[4,5-b][1,4]diazepin-2-yl)amino)-N-(4-(1-(4-(2,6-dioxopiperidin-3-yl)-2-fluorophenyl)pyrrolidin-3-yl)piperazin-1-yl)-3-methoxybenzamide] returned an IC50 at 5 days greater than 10 µM. Besides, the “Activity: ratio” value at PLK1 is listed as “+++ (+++: <0.3)”. In the series with H526 cell line, the IC50 is less than 0.05 µM.
The matching figures for `COc1cc(C(=O)NN2CCC(CN3CCC4(CC3)CN(c3ccc(C5CCC(=O)NC5=O)cc3F)C4)CC2)ccc1Nc1ncc2c(n1)N(C(C)C)CC(F)(F)C(=O)N2C` (stereo not drawn) [Compound 42, 4-((7,7-difluoro-9-isopropyl-5-methyl-6-oxo-6,7,8,9-tetrahydro-5H-pyrimido[4,5-b][1,4]diazepin-2-yl)amino)-N-(4-((2-(4-(2,6-dioxopiperidin-3-yl)-2-fluorophenyl)-2,7-diazaspiro[3.5]nonan-7-yl)methyl)piperidin-1-yl)-3-methoxybenzamide]: greater than 10 µM, “++ (++ <0.6)” and less than 0.03 µM.
The matching figures for `COc1cc(C(=O)NC2CCC(CCN3CCN(c4ccc(C5CCC(=O)NC5=O)cc4F)CC3)CC2)ccc1Nc1ncc2c(n1)N(C(C)C)CC(F)(F)C(=O)N2C` (stereo not drawn) [Compound 43, 4-((7,7-difluoro-9-isopropyl-5-methyl-6-oxo-6,7,8,9-tetrahydro-5H-pyrimido[4,5-b][1,4]diazepin-2-yl)amino)-N-((1r,4r)-4-(2-(4-(4-(2,6-dioxopiperidin-3-yl)-2-fluorophenyl)piperazin-1-yl)ethyl)cyclohexyl)-3-methoxybenzamide]: greater than 10 µM, “+++ (+++: <0.3)” and less than 0.03 µM.
